From patent publication US7915050B2, “Regulatory genes for plant differentiation and growth, and use of the same” (National University Corporation Nagoya University, priority 2005, dated 2011) come the findings set out here.

SMILES strings stand for the structures.

For the assay, the target named is T1, AtGID1a (Arabidopsis thaliana, UniProt Q9MAA7).
T1 construct: made in house; host or cells: E. coli
T1 sequence (Q9MAA7 1-345): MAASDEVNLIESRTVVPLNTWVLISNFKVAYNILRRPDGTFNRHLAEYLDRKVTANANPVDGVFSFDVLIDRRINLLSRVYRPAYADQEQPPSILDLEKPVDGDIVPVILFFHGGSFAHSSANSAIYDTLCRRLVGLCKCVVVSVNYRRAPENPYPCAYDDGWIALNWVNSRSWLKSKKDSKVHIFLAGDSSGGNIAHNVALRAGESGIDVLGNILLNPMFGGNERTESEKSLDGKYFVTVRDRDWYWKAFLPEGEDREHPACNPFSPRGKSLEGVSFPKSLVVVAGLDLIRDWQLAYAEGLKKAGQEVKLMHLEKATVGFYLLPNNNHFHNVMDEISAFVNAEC
The assay can be described thus: Scatchard analysis of GA binding of AtGID1a. As to conditions: equilibrium conditions. The procedure:
Panels A) to C) depict the results of Scatchard plot analyses for the GA binding of AtGID1. Results for AtGID1a (A), AtGID1b (B), and AtGID1c (C) are shown. The Kd values for 16,17-dihydro-GA4 was determined by adding various concentrations of GA to the assay mixture. Standard deviation (SD) was determined from these three independent measurements. The insets show time-course characteristics for the GA binding of AtGID1 and replacement (arrow) using an excess amount of non-labeled GA4 (0.125 mM). Panels D) to F) depict the GA binding activities of AtGID1 under different pH conditions. Results for AtGID1a (D), AtGID1b (E), and AtGID1c (F) are shown. The non-specific binding activity (UB) was determined by adding 0.125 mM GA4 to the assay solution, and this was subtracted from the total binding activity (B) to determine the specific binding activity (B-UB).
Specifically, the coding region of the AtGID1 gene was amplified by PCR using specific primers designed based on the full-length cDNA sequence of the AtGID1 gene and having appropriate restriction sites at each end. […]
The kinetics, ligand selectivity, and pH dependence of GA binding for the three AtGID1s identified as described above were examined using the tritiated GA4 derivative 16,17-dihydro-GA4. […] Furthermore, the kinetics of GA binding of each AtGID1 was analyzed under equilibrium conditions of GA at various concentrations.

What is called Kd is the free concentration of one partner at which half of the binding sites on the other are occupied at equilibrium, for simple one-to-one binding. A high value points to weaker binding. On to `CC1C[C@]23C[C@H]1CCC2[C@]12CC[C@H](O)[C@](C)(C(=O)O1)[C@H]2[C@@H]3C(=O)O` (stereo partly shown) [H2-GA4, 16,17-dihydro-GA4], for which the Kd is 2000 nM.
